This note sets out measurements from patent publication US12338256B2, “Aza-tetracyclic oxazepine compounds and uses thereof” (Genentech, Inc., priority 2022, dated 2025).

Structures are written as SMILES.

Experiment [1] concerns HPAC (homozygous mutant KRAS G12D human pancreatic cell line). The experiment in a line: KRAS 3D-Cell Proliferation Assay, HPAC (Example 503). To be noted: Homo sapiens, HPAC, 168 h, HPAC 3D culture, 7 days, CellTiter-Glo 3D; read-out: Prolif HPAC 3D ATP IC50. The class given is cell-based. Summed up:
(§1)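 Cells grown in 3D in ultra-low attachment plates (RPMI-1640 with 10% FBS and 2 mM L-glutamine) received compound dilution series after overnight attachment, at 0.3% DMSO final, for 7 days at 37° C. ATP luminescence (CellTiter-Glo 3D) normalized to DMSO and 1 μM staurosporine; IC50 from 4-parameter Hill fit.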
In general terms: In ATP-based viability assays light output follows the ATP content of the culture.

Experiment [2] concerns H1975 (KRAS wild type human lung adenocarcinoma cell line). The experiment in a line: KRAS 3D-Cell Proliferation Assay, H1975 (Example 503). The class given is cell-based. To be noted: Homo sapiens, NCI-H1975, 168 h, H1975 3D culture, 7 days, CellTiter-Glo 3D; read-out: Prolif H1975 3D ATP IC50. Summed up: as §1

As a reminder, the IC50 is the concentration that inhibits the measured activity by half. `C[C@@H]1Oc2nc(-c3cc(N)ccc3C(F)(F)F)c(F)c3nc(OC[C@@]45CCCN4C[C@H](F)C5)nc(c23)N2C[C@H]3CC[C@H](N3)[C@@H]12` [Compound 72, 3-((5S,5aS,6S,9R)-1-Fluoro-12-(((2R,7aS)-2-fluorotetrahydro-1H-pyrrolizin-7a(5H)-yl)methoxy)-5-methyl-5a,6,7,8,9,10-hexahydro-5H-4-oxa-3,10a,11,13,14-pentaaza-6,9-methanonaphtho[1,8-ab]heptalen-2-yl)-4-(trifluoromethyl)aniline]: the IC50 in experiment [1] was 3.16 nM; in experiment [2], 1060 nM.

Consider `Cc1cc(N)c(F)c(-c2nc3c4c(nc(OC[C@@H]5CC[C@H]6COCCN65)nc4c2F)N2C[C@H]4CC[C@H](N4)[C@H]2[C@H](C)O3)c1Cl` [Compound 101, 4-Chloro-2-fluoro-3-((5S,5aS,6S,9R)-1-fluoro-12-(((6S,8aS)-hexahydro-1H-pyrrolo[2,1-c][1,4]oxazin-6-yl)methoxy)-5-methyl-5a,6,7,8,9,10-hexahydro-5H-4-oxa-3,10a,11,13,14-pentaaza-6,9-methanonaphtho[1,8-ab]heptalen-2-yl)-5-methylaniline], for which the half-inhibitory concentration (IC50) is 41.5 nM in experiment [1] and 8490 nM in experiment [2].

For `Cc1cc(N)c(F)c(-c2nc3c4c(nc(OC[C@@H]5CC[C@H]6COCCN65)nc4c2F)N2C[C@H]4CC[C@H](N4)[C@H]2[C@H](C)O3)c1CC(F)F` [Compound 231, 4-(2,2-Difluoroethyl)-2-fluoro-3-((5S,5aS,6S,9R)-1-fluoro-12-(((6S,8aS)-hexahydro-1H-pyrrolo[2,1-c][1,4]oxazin-6-yl)methoxy)-5-methyl-5a,6,7,8,9,10-hexahydro-5H-4-oxa-3,10a,11,13,14-pentaaza-6,9-methanonaphtho[1,8-ab]heptalen-2-yl)-5-methylaniline], the IC50 in experiment [1] amounted to 39.8 nM; in experiment [2], 13200 nM.

For `Cc1cc(-c2nc3c4c(nc(OC[C@@]56CCCN5C[C@H](F)C6)nc4c2F)N2C[C@H]4CC[C@H](N4)[C@H]2[C@H](C)O3)c(F)c(N)n1` [Compound 177, 3-Fluoro-4-((5S,5aS,6S,9R)-1-fluoro-12-(((2R,7aS)-2-fluorotetrahydro-1H-pyrrolizin-7°(5H)-yl)methoxy)-5-methyl-5°,6,7,8,9,10-hexahydro-5H-4-oxa-3,10°,11,13,14-pentaaza-6,9-methanonaptho[1,8-ab]heptalen-2-yl)-6-methylpyridin-2-amine], the IC50 in experiment [1] amounted to 4450 nM; in experiment [2], 20000 nM.

On to `Cc1c(F)c(N)cc(-c2nc3c4c(nc(OCC56C[C@H](F)CN5C[C@@H](F)C6)nc4c2F)N2C[C@H]4CC[C@H](N4)[C@H]2[C@H](C)O3)c1C(F)(F)F` [Compound 139, 5-((5S,5aS,6S,9R)-12-(((2S,6S)-2,6-Difluorotetrahydro-1H-pyrrolizin-7a(5H)-yl)methoxy)-1-fluoro-5-methyl-5a,6,7,8,9,10-hexahydro-5H-4-oxa-3,10a,11,13,14-pentaaza-6,9-methanonaphtho[1,8-ab]heptalen-2-yl)-2-fluoro-3-methyl-4-(trifluoromethyl)aniline], for which the results for the IC50 in experiment [1] and in experiment [2] were 118 nM and 8570 nM, respectively.

Consider `Cc1c(F)c(N)cc(-c2nc3c4c(nc(OCC5(CN6C[C@@H]7C[C@H]6CO7)CC5)nc4c2F)N2C[C@H]4CC[C@H](N4)[C@H]2[C@H](C)O3)c1C(F)(F)F` [Compound 169, 5-((5S,5aS,6S,9R)-12-((1-(((1S,4S)-2-Oxa-5-azabicyclo[2.2.1]heptan-5-yl)methyl)cyclopropyl)methoxy)-1-fluoro-5-methyl-5a,6,7,8,9,10-hexahydro-5H-4-oxa-3,10a,11,13,14-pentaaza-6,9-methanonaphtho[1,8-ab]heptalene-2-yl)-2-fluoro-3-methyl-4-(trifluoromethyl)aniline], for which the half-maximal inhibitory concentration (IC50) turned out to be 0.92 nM in experiment [1] and 454 nM in experiment [2].

Take `CO[C@@H]1CCN(CC2(COc3nc4c5c(nc(-c6cc(N)nc(C)c6C(F)(F)F)c(F)c5n3)O[C@@H](C)[C@@H]3[C@@H]5CC[C@H](CN43)N5)CC2)C[C@@H]1F` [Compound 275, 4-((5S,5aS,6S,9R)-1-fluoro-12-((1-(((3S,4R)-3-fluoro-4-methoxypiperidin-1-yl)methyl)cyclopropyl)methoxy)-5-methyl-5a,6,7,8,9,10-hexahydro-5H-4-oxa-3,10a,11,13,14-pentaaza-6,9-methanonaphtho[1,8-ab]heptalene-2-yl)-6-methyl-5-(trifluoromethyl)pyridin-2-amine]: the IC50 in experiment [1] was 3.29 nM; in experiment [2], 5180 nM.

As for `Cc1nc(N)cc(-c2nc3c4c(nc(OCC56C[C@@H](F)CN5C[C@H](F)C6)nc4c2F)N2C[C@H]4CC[C@H](N4)[C@H]2[C@H](C(F)(F)F)O3)c1C(F)(F)F` [Compound 261, 4-((5R,5aS,6S,9R)-12-(((2R,6R)-2,6-Difluorotetrahydro-1H-pyrrolizin-7a(5H)-yl)methoxy)-1-fluoro-5-(trifluoromethyl)-5a,6,7,8,9,10-hexahydro-5H-4-oxa-3,10a,11,13,14-pentaaza-6,9-methanonaphtho[1,8-ab]heptalen-2-yl)-6-methyl-5-(trifluoromethyl)pyridin-2-amine], the values for the IC50 in experiment [1] and in experiment [2] were 107 nM and 6100 nM, respectively.

In the case of `Cc1nc(N)cc(-c2nc3c4c(nc(OCC5(CN6CCCC67CCOC7)CC5)nc4c2F)N2C[C@H]4CC[C@H](N4)[C@H]2[C@H](C)O3)c1C(F)(F)F` (stereo partly drawn) [Compound 282, 4-((5S,5aS,6S,9R)-12-((1-((7-oxa-1-azaspiro[4.4]nonan-1-yl)methyl)cyclopropyl)methoxy)-1-fluoro-5-methyl-5a,6,7,8,9,10-hexahydro-5H-4-oxa-3,10a,11,13,14-pentaaza[6,9]methanonaphtho[1,8-ab]heptalene-2-yl)-6-methyl-5-(trifluoromethyl)pyridin-2-amine], the IC50 is 3.96 nM in experiment [1] and 2450 nM in experiment [2].

Take `Cc1c(F)c(N)cc(-c2nc3c4c(nc(OC[C@@H]5CCC6C=C(F)CCN65)nc4c2F)N2C[C@H]4CC[C@H](N4)[C@H]2[C@H](C)O3)c1C(F)(F)F` (stereo partly drawn) [Compound 120, 2-fluoro-5-((5S,5aS,6S,9R)-1-fluoro-12-(((3S)-7-fluoro-1,2,3,5,6,8a-hexahydroindolizin-3-yl)methoxy)-5-methyl-5a,6,7,8,9,10-hexahydro-5H-4-oxa-3,10a,11,13,14-pentaaza-6,9-methanonaphtho[1,8-ab]heptalen-2-yl)-3-methyl-4-(trifluoromethyl)aniline]: the results for the IC50 in experiment [1] and in experiment [2] were 10.6 nM and 1530 nM, respectively.

Consider `Cc1c(F)c(N)cc(-c2nc3c4c(nc(OCC56COCC5CCN6C)nc4c2F)N2CC4CCC(N4)C2C(C)O3)c1C(F)(F)F` (single isomer, unassigned) [134 (isomer 2)], for which the half-maximal inhibitory concentration (IC50) in experiment [1] is 7.45 nM; in experiment [2] it was 1940 nM.

For the compound `Cc1c(F)c(N)cc(-c2nc3c4c(nc(OCC5CCC6CC(C(=O)N(C)C)CCN56)nc4c2F)N2CC4CCC(N4)C2C(C)O3)c1C(F)(F)F` (single isomer, unassigned) [133 (isomer 4)], the IC50 in experiment [1] stood at 14.1 nM; in experiment [2], 2080 nM.

Consider `C[C@@H]1Oc2nc(-c3cc(N)cc(C(F)(F)F)c3C(F)(F)F)c(F)c3nc(OC[C@@]45CCCN4C[C@H](F)C5)nc(c23)N2C[C@H]3CC[C@H](N3)[C@@H]12` [Compound 115, 3-((5S,5aS,6S,9R)-1-fluoro-12-(((2R,7aS)-2-fluorotetrahydro-1H-pyrrolizin-7a(5H)-yl)methoxy)-5-methyl-5a,6,7,8,9,10-hexahydro-5H-4-oxa-3,10a,11,13,14-pentaaza-6,9-methanonaphtho[1,8-ab]heptalen-2-yl)-4,5-bis(trifluoromethyl)aniline], for which the IC50 amounted to 15.7 nM in experiment [1] and 2710 nM in experiment [2].

In the case of `Cc1c(F)c(N)cc(-c2nc3c4c(nc(OC[C@@H]5CO[C@H]6CC[N@]5C6)nc4c2F)N2C[C@H]4CC[C@H](N4)[C@H]2[C@H](C)O3)c1C(F)(F)F` [Compound 135, 5-((5S,5aS,6S,9R)-12-(((1R,2S,5S)-4-Oxa-1-azabicyclo[3.2.1]octan-2-yl)methoxy)-1-fluoro-5-methyl-5a,6,7,8,9,10-hexahydro-5H-4-oxa-3,10a,11,13,14-pentaaza-6,9-methanonaphtho[1,8-ab]heptalen-2-yl)-2-fluoro-3-methyl-4-(trifluoromethyl)aniline], the IC50 in experiment [1] turned out to be 95.6 nM; in experiment [2], 20000 nM.

Regarding `Cc1nc(N)cc(-c2nc3c4c(nc(OCC5(CN6CC7CCOC7C6)CC5)nc4c2F)N2C[C@H]4CC[C@H](N4)[C@H]2[C@H](C)O3)c1C(F)(F)F` (stereo partly drawn) [Compound 280, 4-((5S,5aS,6S,9R)-1-fluoro-12-((1-((hexahydro-5H-furo[2,3-c]pyrrol-5-yl)methyl)cyclopropyl)methoxy)-5-methyl-5a,6,7,8,9,10-hexahydro-5H-4-oxa-3,10a,11,13,14-pentaaza-6,9-methanonaphtho[1,8-ab]heptalene-2-yl)-6-methyl-5-(trifluoromethyl)pyridin-2-amine], the values for the IC50 in experiment [1] and in experiment [2] were 1.77 nM and 1340 nM, respectively.

As for `C[C@@H]1Oc2nc(-c3cc(N)cc(F)c3C(F)(F)F)c(F)c3nc(OCC4CCC5N4CCOC5(C)C)nc(c23)N2C[C@H]3CC[C@H](N3)[C@@H]12` (stereo partly drawn) [Compound 157, 3-((5S,5aS,6S,9R)-12-((1,1-Dimethylhexahydro-1H-pyrrolo[2,1-c][1,4]oxazin-6-yl)methoxy)-1-fluoro-5-methyl-5a,6,7,8,9,10-hexahydro-5H-4-oxa-3,10a,11,13,14-pentaaza-6,9-methanonaphtho[1,8-ab]heptalen-2-yl)-5-fluoro-4-(trifluoromethyl)aniline], the results for the 50% inhibitory concentration (IC50) in experiment [1] and in experiment [2] were 12.8 nM and 2140 nM, respectively.
